Reference: patent US4385175A, “Esters of retinoic acid and azetidinone derivatives” (Bristol-Myers Company, priority 1982, dated 1983)
Where two headings read alike, the source gives them in different places.

Test system: squamous metoplasia and keratinization in organ cultures of trachea derived from vitamin A-deficient hamsters
Assay: inhibition of squamous metaplasia and keratinization (reversal of keratinization) in tracheal organ cultures
Assay type: cell-based, hamster
Conditions: Mesocricetus auratus, read-out: Reversal of Keratinization ED50
[1] = median effective dose: dose required for reversal of keratinization of 50% of the explants, by probit analysis, hamster trachea organ culture

For `CC1=C(/C=C/C(C)=C/C=C/C(C)=C/C(=O)OCc2ccccc2N2C(=O)[C@@H](N=[N+]=[N-])[C@H]2/C=C/c2ccccc2)C(C)(C)CCC1` (relative stereo) [Compound IV], the EC50 [1] was 0.407 nM.

In the case of `CC1=C(/C=C/C(C)=C/C=C/C(C)=C/C(=O)OCc2cccc3c2N2C(=O)[C@@H](NC(=O)Cc4ccccc4)[C@H]2CO3)C(C)(C)CCC1` (relative stereo) [Compound VI], the EC50 [1] is reported as 0.39 nM.

In the case of `CC1=C(/C=C/C(C)=C/C=C/C(C)=C/C(=O)OCc2ccccc2N2C(=O)[C@@H](NC(=O)Cc3ccccc3)[C@H]2/C=C/c2ccccc2)C(C)(C)CCC1` (relative stereo) [Compound V], the EC50 [1] is reported as 0.198 nM.

For `CC1=C(/C=C/C(C)=C/C=C/C(C)=C/C(=O)OC(C(=O)c2ccccn2)c2ccccn2)C(C)(C)CCC1` (centres unmarked) [Compound VII], the EC50 [1] was 0.31 nM.

For `CC1=C(/C=C/C(C)=C/C=C/C(C)=C/C(=O)O)C(C)(C)CCC1` [β-All-trans-retinoic acid, reference compound], the EC50 was 0.115 nM.
